Data reported in PubChem BioAssay AID2060616 (Molecular Pharmacology Branch, DTP, NCI, 2025).

Test system: 377384-186-R-J1-PDC complex spheroid viability
Experiment: Anticancer human tumor 377384-186-R-J1-PDC patient-derived pancreatic carcinoma cell line growth inhibition [CLK]
Conditions: for IC50: curve of first compound; for viability, T/C: stronger effect = lower value; active = viability on the fitted dose curve at most 10% of control; inactive = the rest
Method in brief: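 Patient-derived tumor cells grown as complex spheroids with HUVEC endothelial cells and mesenchymal stem cells, treated with drug combinations. Concentrations descend in half-log steps from near clinical Cmax, or from 10 microM if Cmax unknown.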

[1] = second compound 0.0316 µM, first compound 0.00316 µM
[2] = second compound 0.0316 µM, first compound 0.01 µM
[3] = second compound 0.0316 µM, first compound 0.0316 µM
[4] = second compound 0.0316 µM, first compound 0.1 µM
[5] = second compound 0.0316 µM, first compound 0.316 µM
[6] = second compound 0.0316 µM, first compound 1 µM
[7] = second compound 0.1 µM, first compound 0.00316 µM
[8] = second compound 0.1 µM, first compound 0.01 µM
[9] = second compound 0.1 µM, first compound 0.0316 µM
[10] = second compound 0.1 µM, first compound 0.1 µM
[11] = second compound 0.1 µM, first compound 0.316 µM
[12] = second compound 0.1 µM, first compound 1 µM
[13] = second compound 0.316 µM, first compound 0.00316 µM
[14] = second compound 0.316 µM, first compound 0.01 µM
[15] = second compound 0.316 µM, first compound 0.0316 µM
[16] = second compound 0.316 µM, first compound 0.1 µM
[17] = second compound 0.316 µM, first compound 0.316 µM
[18] = second compound 0.316 µM, first compound 1 µM
[19] = second compound 1 µM, first compound 0.00316 µM
[20] = second compound 1 µM, first compound 0.01 µM
[21] = second compound 1 µM, first compound 0.0316 µM
[22] = second compound 1 µM, first compound 0.1 µM
[23] = second compound 1 µM, first compound 0.316 µM
[24] = second compound 1 µM, first compound 1 µM
[25] = second compound 3.16 µM, first compound 0.00316 µM
[26] = second compound 3.16 µM, first compound 0.01 µM
[27] = second compound 3.16 µM, first compound 0.0316 µM
[28] = second compound 3.16 µM, first compound 0.1 µM
[29] = second compound 3.16 µM, first compound 0.316 µM
[30] = second compound 3.16 µM, first compound 1 µM
[31] = second compound 10 µM, first compound 0.00316 µM
[32] = second compound 10 µM, first compound 0.01 µM
[33] = second compound 10 µM, first compound 0.0316 µM
[34] = second compound 10 µM, first compound 0.1 µM
[35] = second compound 10 µM, first compound 0.316 µM
[36] = second compound 10 µM, first compound 1 µM
[37] = second compound 0.0316 µM, first compound 3.16 µM
[38] = second compound 0.0316 µM, first compound 10 µM
[39] = second compound 0.1 µM, first compound 3.16 µM
[40] = second compound 0.1 µM, first compound 10 µM
[41] = second compound 0.316 µM, first compound 3.16 µM
[42] = second compound 0.316 µM, first compound 10 µM
[43] = second compound 1 µM, first compound 3.16 µM
[44] = second compound 1 µM, first compound 10 µM
[45] = second compound 3.16 µM, first compound 3.16 µM
[46] = second compound 3.16 µM, first compound 10 µM
[47] = second compound 10 µM, first compound 3.16 µM
[48] = second compound 10 µM, first compound 10 µM
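Also: spheroids exposed to agents for 7 days before reading.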
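For viability, T/C in this document: luminescence signal used as a stand-in for viable cells.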

CCc1c2c(nc3ccc(O)cc13)-c1cc3c(c(=O)n1C2)COC(=O)[C@]3(O)CC + CNC(=O)c1ccc(Nc2nc(OC3CCCC3)c3c(-c4ccc5nc(C)oc5c4)c[nH]c3n2)c(OC)c1
active: viability, T/C [3] 4.72% | viability, T/C [4] 2.28% | viability, T/C [5] 1.46% | viability, T/C [6] 0.55% | viability, T/C [8] 9.08% | viability, T/C [9] 4.28% | viability, T/C [10] 2.07% | viability, T/C [11] 1.21% | viability, T/C [12] 0.63% | viability, T/C [14] 7% | viability, T/C [15] 3.57% | viability, T/C [16] 2.54% | viability, T/C [17] 1.19% | viability, T/C [18] 0.53% | viability, T/C [20] 8.91% | viability, T/C [21] 3.7% | viability, T/C [22] 1.76% | viability, T/C [23] 1.06% | viability, T/C [24] 0.66% | viability, T/C [26] 8.07% | viability, T/C [27] 3.3% | viability, T/C [28] 1.8% | viability, T/C [29] 1.68% | viability, T/C [30] 0.58% | viability, T/C [32] 8.53% | viability, T/C [33] 3.76% | viability, T/C [34] 1.55% | viability, T/C [35] 0.98% | viability, T/C [36] 0.79%
< 0.00316 µM: IC50 (second compound 0.0316 µM) | IC50 (second compound 0.1 µM) | IC50 (second compound 0.316 µM) | IC50 (second compound 1 µM) | IC50 (second compound 3.16 µM) | IC50 (second compound 10 µM)
inactive: viability, T/C [1] 25.8% | viability, T/C [2] 11.6% | viability, T/C [7] 17.5% | viability, T/C [13] 10.7% | viability, T/C [19] 12.9% | viability, T/C [25] 14.4% | viability, T/C [31] 13.4%

Cn1ncnc1[C@H]1c2n[nH]c(=O)c3cc(F)cc(c23)N[C@@H]1c1ccc(F)cc1 + CNC(=O)c1ccc(Nc2nc(OC3CCCC3)c3c(-c4ccc5nc(C)oc5c4)c[nH]c3n2)c(OC)c1
inactive: viability, T/C (second compound 0.0316 µM, first compound 0.000316 µM) 91.7% | viability, T/C (second compound 0.0316 µM, first compound 0.001 µM) 87.6% | viability, T/C [1] 61.8% | viability, T/C [2] 56.3% | viability, T/C [3] 53.6% | viability, T/C [4] 48.8% | viability, T/C (second compound 0.1 µM, first compound 0.000316 µM) 48.7% | viability, T/C (second compound 0.1 µM, first compound 0.001 µM) 42.7% | viability, T/C [7] 36.5% | viability, T/C [8] 39% | viability, T/C [9] 34.3% | viability, T/C [10] 28.7% | viability, T/C (second compound 0.316 µM, first compound 0.000316 µM) 16.8% | viability, T/C (second compound 0.316 µM, first compound 0.001 µM) 18.2% | viability, T/C [13] 19.2% | viability, T/C [14] 17.4% | viability, T/C [15] 16% | viability, T/C [16] 14.9% | viability, T/C (second compound 1 µM, first compound 0.000316 µM) 21.5% | viability, T/C (second compound 1 µM, first compound 0.001 µM) 18.2% | viability, T/C [19] 17.6% | viability, T/C [20] 15.9% | viability, T/C [21] 15.6% | viability, T/C [22] 15.6% | viability, T/C (second compound 3.16 µM, first compound 0.000316 µM) 16.9% | viability, T/C (second compound 3.16 µM, first compound 0.001 µM) 18.6% | viability, T/C [25] 17.3% | viability, T/C [26] 20% | viability, T/C [27] 15.6% | viability, T/C [28] 15.3% | viability, T/C (second compound 10 µM, first compound 0.000316 µM) 18.7% | viability, T/C (second compound 10 µM, first compound 0.001 µM) 17.5% | viability, T/C [31] 20.7% | viability, T/C [32] 16.4% | viability, T/C [33] 18.5% | viability, T/C [34] 14.8%
> 0.1 µM: IC50 (second compound 0.0316 µM)
< 0.000316 µM: IC50 (second compound 0.1 µM) | IC50 (second compound 0.316 µM) | IC50 (second compound 1 µM) | IC50 (second compound 3.16 µM) | IC50 (second compound 10 µM)

Nc1ccn(C2OC(CO)C(O)C2(F)F)c(=O)n1 (stereo not given) + CNC(=O)c1ccc(Nc2nc(OC3CCCC3)c3c(-c4ccc5nc(C)oc5c4)c[nH]c3n2)c(OC)c1
< 0.0316 µM: IC50 (second compound 0.0316 µM) | IC50 (second compound 0.1 µM) | IC50 (second compound 0.316 µM) | IC50 (second compound 1 µM) | IC50 (second compound 3.16 µM) | IC50 (second compound 10 µM)
active: viability, T/C [3] 8.18% | viability, T/C [4] 3.36% | viability, T/C [5] 3.13% | viability, T/C [6] 2.68% | viability, T/C [37] 2.2% | viability, T/C [38] 1.72% | viability, T/C [9] 6.64% | viability, T/C [10] 4.51% | viability, T/C [11] 2.85% | viability, T/C [12] 2.62% | viability, T/C [39] 2.66% | viability, T/C [40] 2.22% | viability, T/C [15] 7.09% | viability, T/C [16] 3.96% | viability, T/C [17] 3.31% | viability, T/C [18] 2.62% | viability, T/C [41] 2.25% | viability, T/C [42] 1.52% | viability, T/C [21] 8.74% | viability, T/C [22] 4.85% | viability, T/C [23] 4.17% | viability, T/C [24] 3.63% | viability, T/C [43] 1.95% | viability, T/C [44] 1.24% | viability, T/C [27] 8.43% | viability, T/C [28] 6.12% | viability, T/C [29] 4.34% | viability, T/C [30] 3.36% | viability, T/C [45] 3.71% | viability, T/C [46] 1.58% | viability, T/C [33] 9.23% | viability, T/C [34] 7.84% | viability, T/C [35] 5.26% | viability, T/C [36] 3.45% | viability, T/C [47] 2.47% | viability, T/C [48] 1.32%

O=C(c1cc(Cc2n[nH]c(=O)c3ccccc23)ccc1F)N1CCN(C(=O)C2CC2)CC1 + CNC(=O)c1ccc(Nc2nc(OC3CCCC3)c3c(-c4ccc5nc(C)oc5c4)c[nH]c3n2)c(OC)c1
0.991 µM: IC50 (second compound 0.1 µM)
6.38 µM: IC50 (second compound 0.0316 µM)
< 0.0316 µM: IC50 (second compound 0.316 µM) | IC50 (second compound 1 µM) | IC50 (second compound 3.16 µM) | IC50 (second compound 10 µM)
inactive: viability, T/C [3] 83.7% | viability, T/C [4] 84.7% | viability, T/C [5] 78.9% | viability, T/C [6] 75.9% | viability, T/C [37] 64.9% | viability, T/C [38] 40.3% | viability, T/C [9] 52.1% | viability, T/C [10] 50.2% | viability, T/C [11] 57% | viability, T/C [12] 49% | viability, T/C [39] 38.3% | viability, T/C [40] 29.7% | viability, T/C [15] 22.3% | viability, T/C [16] 17.4% | viability, T/C [17] 20.7% | viability, T/C [18] 17.8% | viability, T/C [41] 15.3% | viability, T/C [42] 17.5% | viability, T/C [21] 23.3% | viability, T/C [22] 18.6% | viability, T/C [23] 17.9% | viability, T/C [24] 21.3% | viability, T/C [43] 20% | viability, T/C [44] 17.4% | viability, T/C [27] 19.6% | viability, T/C [28] 21.1% | viability, T/C [29] 22.2% | viability, T/C [30] 19.4% | viability, T/C [45] 22% | viability, T/C [46] 18.4% | viability, T/C [33] 18.7% | viability, T/C [34] 19.8% | viability, T/C [35] 21.8% | viability, T/C [36] 19.8% | viability, T/C [47] 18.9% | viability, T/C [48] 15.2%

O=c1[nH]cc(F)c(=O)[nH]1 + CNC(=O)c1ccc(Nc2nc(OC3CCCC3)c3c(-c4ccc5nc(C)oc5c4)c[nH]c3n2)c(OC)c1
0.0464 µM: IC50 (second compound 0.1 µM)
3.65 µM: IC50 (second compound 0.0316 µM)
< 0.0316 µM: IC50 (second compound 0.316 µM) | IC50 (second compound 1 µM) | IC50 (second compound 3.16 µM) | IC50 (second compound 10 µM)
inactive: viability, T/C [3] 98% | viability, T/C [4] 98.3% | viability, T/C [5] 96% | viability, T/C [6] 82.1% | viability, T/C [37] 50.3% | viability, T/C [38] 46.3% | viability, T/C [9] 49.6% | viability, T/C [10] 50.9% | viability, T/C [11] 45.4% | viability, T/C [12] 54.5% | viability, T/C [39] 41.6% | viability, T/C [40] 43.5% | viability, T/C [15] 20.4% | viability, T/C [16] 20.3% | viability, T/C [17] 16.7% | viability, T/C [18] 16.4% | viability, T/C [41] 14.5% | viability, T/C [42] 14% | viability, T/C [21] 22% | viability, T/C [22] 17.8% | viability, T/C [23] 19.2% | viability, T/C [24] 14.9% | viability, T/C [43] 13.2% | viability, T/C [44] 10.7% | viability, T/C [27] 20.2% | viability, T/C [28] 19.7% | viability, T/C [29] 17.6% | viability, T/C [30] 16.7% | viability, T/C [45] 12.6% | viability, T/C [46] 9.93% | viability, T/C [33] 16.8% | viability, T/C [34] 17.2% | viability, T/C [35] 17.1% | viability, T/C [36] 16% | viability, T/C [47] 10.8% | viability, T/C [48] 11.4%
